US9518271B2, “Lentiviral-based vector and its use in directed evolution of genomic regions, genes and polynucleotides” (CENTRE NATIONAL DE LA RECHERCHE SCIENTIFIQUE, priority 2009, dated 2016)

Legend:
[1] = tested on: Jurkat SLP-76−/−plL2-luc cell clone; test: Luciferase induction in Jurkat SLP-76-/- pIL2-luc cell clone; format: cell-based; conditions: IL2 promoter-driven luciferase; PMA and Calcimycine applied together
Text: (§1) Concerning the screening based on the two luciferase-based readouts (either the one based on transcription driven by the NFAT or by IL2), the inventors have constructed two cell lines which as such are also part of the present invention: • the Jurkat SLP-76−/−plL2-luc cell clone, deposited at the CNCM (Paris, France) under accession number I-4236 on Oct. 30, 2009, in the name of Institut Pasteur, 25-28 rue du Docteur Roux, 75724 Paris Cedex 15, and resulting from the introduction in Jurkat J14 cells (SLP-76−/−) of the firefly luciferase gene under the control of two copies of the IL2 promoter; and • the Jurkat SLP-76−/−NFAT-luc cell clone, deposited at the CNCM under accession number I-4237 on Oct. 30, 2009, in the name of Institut Pasteur, 25-28 rue du Docteur Roux, 75724 Paris Cedex 15, and resulting from the introduction in Jurkat J14 cells (SLP-76−/−) of the firefly luciferase gene preceded by three copies of the NFAT binding site.

[2] = tested on: Jurkat SLP-76−/−NFAT-luc cell clone; test: Luciferase induction in Jurkat SLP-76-/- NFAT-luc cell clone; format: cell-based; conditions: NFAT binding site-driven luciferase; PMA and Calcimycine applied together
Text: as §1

[3] = tested on: Messa 10K cells; conditions: Messa 10K cells lacking functional dCK; read-out: Gemcitabine 1050; cited from earlier work
[4] = tested on: HEK 293T cells; test: Cell death (MTT assay) of HEK 293T clones carrying dCK variants exposed to AraC; format: cell-based, human; conditions: increasing concentrations of AraC, 72 h, FIG. 8
Text: FIG. 8 discloses the cell survival with regard to increasing concentrations of AraC (μM) in presence of the wild type dCK gene (white triangles and solid thick curve) or variants containing point mutations or deletion in the dCK gene (other curves). Each plot represents the average of three independent experiments.
(§2) 80 individual cellular clones at the F17 generation, obtained after transduction of 293T cells at a low multiplicity of infection (and therefore carrying a single variant of the target polynucleotide) have been isolated. The 80 clones have been tested for the kinetic of cell death induced after their exposal to different concentrations of the two anti-cancer drugs, AraC and Gemcitabine, which are cytidine analogues (the natural substrate of dCK) as follows.
Individual clones have been isolated after transduction of HEK 293T cells at low multiplicity of transduction (m.o.i.) and seeding of the transduced cells at limiting dilutions in 96-well plates. […] Seventy-two hours after exposure, cell death has been evaluated for each independent clone and for each drug treatment condition using the MTT assay (Promega) that is a colorimetric test used to quantify cell viability and proliferation. A relative rate of cell death has been calculated for each clone, with respect to the values observed in the plate where no drug was included. […]

[5] = tested on: HEK 293T cells; test: Cell death (MTT assay) of HEK 293T clones carrying dCK variants exposed to Gemcitabine; format: cell-based, human; conditions: 10 nM Gemcitabine, average of 4 independent experiments
Text: as §2
Individual clones have been isolated after transduction of HEK 293T cells at low multiplicity of transduction (m.o.i.) and seeding of the transduced cells at limiting dilutions in 96-well plates. Individual cell clones growing in the presence of puromycin have then been expanded and seeded in parallel in several replicated 96-well plates. All these plates, with the exception of one to use as control, have been exposed to the anticancer drug at different concentrations, while the control plate has been maintained in the absence of drug. Seventy-two hours after exposure, cell death has been evaluated for each independent clone and for each drug treatment condition using the MTT assay (Promega) that is a colorimetric test used to quantify cell viability and proliferation. A relative rate of cell death has been calculated for each clone, with respect to the values observed in the plate where no drug was included. […]

[6] = tested on: Messa 10K cells; test: Sensitivity to Gemcitabine of Messa 10K cells transduced with dCK variants; format: cell-based, human
Method: FIG. 10 discloses (A) the cell survival with regard to increasing concentrations of Gemcitabine (nM) in untransduced Messa 10K cells (grey solid line), in presence of the wild type dCK gene (large dashed lines) or in presence of dCK G12 variants gene (black solid lines); (B) the survival of Messa 10K cells in presence of 75 nM Gemcitabine in untransduced Messa 10K cells (Messa10K), in Messa 10K cells transduced with a viral vector carrying a wild type dCK gene (M-dCK), in Messa 10K cells transduced with a viral vector carrying the E8 variant dCK gene with mutations G>A 739 et C>A 745 (M-E8) or in Messa 10K cells transduced with a viral vector carrying the G12 variant dCK gene (M-G12), and (C) Western Blot to detect dCK expression on cell lysates, using a polyclonal rabbit antibody; M: untransduced Messa10K cells; M-dCK: Messa10K transduced with a vector carrying the wt dCK gene (4 independent populations); M-G12: Messa10K transduced with a vector carrying the G12 mutant (4 independent populations).
FIG. 11 discloses the cell survival with regard to increasing concentrations of Gemcitabine (nM) in untransduced Messa10K cells (small dashed line), in Messa10K cells transduced with a vector carrying the wt dCK gene (large dashed line; n=5), in Messa10K cells transduced with a vector carrying the sequence of the dCK G12 variant re-inserted in a wild-type backbone (light grey line; n=5), in Messa10K cells transduced with a vector rescued from the 293T-G12-F16 cell line (dark grey line; n=5) and in Messa10K cells transduced with a vector rescued from the 293T-G12-F17 cell line (solid black line; n=5). […]
For these reasons, a strategy for the screening on Messa 10K cells (illustrated in FIG. 9) was set up, aiming at averaging the epigenetic effects possibly influencing the final phenotype by analysing a population of target cells containing the same dCK variant inserted in different sites of the genome. […] The totality of the clones of the same variant were cultivated and analysed for the sensitivity to Gemcitabine in the assay previously described. […]

CNc1ccc2oc(C[C@H]3O[C@@]4(CC[C@H]3C)O[C@H]([C@H](C)C(=O)c3ccc[nH]3)[C@H](C)C[C@H]4C)nc2c1C(=O)O [Calcimycine]
induction of luciferase [1]: strong induction | induction of luciferase [2]: strong induction

Nc1ccn([C@@H]2O[C@H](CO)[C@@H](O)C2(F)F)c(=O)n1 [Gemcitabine]
IC50 [3]: 11 µM

CCCCCCCCCCCCCC(=O)O[C@@H]1[C@@H](C)[C@@]2(O)[C@@H](C=C(CO)C[C@]3(O)C(=O)C(C)=C[C@@H]23)[C@@H]2C(C)(C)[C@]12OC(C)=O [Phorbol Myristate Acetate]
induction of luciferase [1]: strong induction | induction of luciferase [2]: strong induction

G7: dCK variant with a G to A transition at position 521, leading to the G174E variation at the amino acid level [Clone G7]
cell death induced by AraC compared with wt dCK [4]: clear tendency to induce cell death

G12: dCK variant with a G to A transition at position 511 (E171K at the amino acid level) [Clone G12]
ratio of cell survival in G12 cells/dCK cells [5]: 0.50±0.11 | cell death ratio ([6]; 75 nM Gemcitabine, transduced Messa 10K cells, FIG. 10B): 90% | sensitivity to Gemcitabine conferred after re-insertion in a wild type lentiviral vector ([6]; G12 subcloned from cell line F16, Messa 10K cells, FIG. 11): maintains the ability to confer increased sensitivity to Gemcitabine | cell death by Gemcitabine compared with wild type dCK ([6]; transduced Messa 10K cells, four rounds of screening, FIG. 10A/10B): cell death ratio higher than the one induced from a wild type dCK
